Laboratory results published in US20040191842A1, “Chemopreventive and therapeutic aspects of polyphenolic compositions and assays” (Medical College of Georgia Research Institute, Inc., priority 2002, published 2004).
“Also recorded” adds a separate entry of the source.

Tests used:
NHEK [1] = test: MTT assay (SDH activity), NHEK; assay type: cell-based, human
Description: (§1) Succinate dehydrogenase activity assay (MTT assay).

OSC-2 and OSC-4 cells [2] = test: MTT assay, OSC-2 and OSC-4 cells pretreated with catalase, 3-AT or NAC; assay type: cell-based, human
Description: as §1

OSC-2 cells [3] = test: MTT assay (mitochondrial SDH activity), OSC2 (OSC-2) cells
Protocol: This method detects the activity of mitochondrial succinate dehydrogenase (SDH). In a 96-well plate, 1.5×10^4 cells were seeded in each well. After variety of treatments, 100 μl of 2% MTT was added to each well and the plate was incubated at 37° C. for 30 minutes. 100 μl of 0.2 M Tris (pH 7.7) with 4% formalin was added to each well. After incubation at room temperature for 5 minutes, liquid was removed and the wells were allowed to dry. Each well was rinsed with 200 μl water followed by addition of 100 μl DMSO (6.35% 0.1 N NaOH in DMSO) to each well. The coloration was measured by a Thermo MAX microplate reader (Molecular Devices Corp. Sunnyvale, Calif. using wavelengths of 562 nm. Experiments were repeated three times with triplicate samples for each experiment.
This method directly detects the activity of mitochondrial succinate dehydrogenase (SDH). Changes in SDH activity is a measurement of cell viability when stress is introduced in cell culture through chemical or physical means. Cells (1.5×10^4 cells/well) were seeded in a 96-well microplate and treated with the indicated doses of EGCG for 24 hours. After the treatment, the cells in each well were washed with 200 μl of phosphate-buffered saline (PBS), incubated with 100 μl of 2% MTT in a solution of 0.05 M Tris, 0.5 mM MgCl2, 2.5 mM CoCl2, and 0.25 M disodiumn succinate as substrate (Sigma) at 37° C. for 30 minutes. Cells were fixed in situ by the addition of 100 μl of 4% formalin in 0.2 M Tris (pH 7.7), and after a 5 minute incubation at room temperature liquid was removed and the wells were allowed to dry. Each well was rinsed with 200 μl water and cells were solubilized by the addition of 100 μl of 6.35% 0.1 N NaOH in DMSO. The colored formazan product was measured by a Thermo MAX micro plate reader (Molecular Devices Corp., Sunnyvale, Calif.) at a wavelength of 562 nm. […]
This method directly detects the activity of mitochondrial succinate dehydrogenase (SDH). […] Solubilized colored formazan product was measured using a Thermo MAX microplate reader (Molecular Devices Corp., Sunnyvale, Calif.) at a wavelength of 562 nm.

OSC-2 cells [4] = test: Intracellular ROS levels (DFDA assay), OSC-2 cells; assay type: cell-based, human; settings: 5 mM diamide or relatively high H2O2, 60 minutes
Protocol: (§2) Measurement of intracellular ROS levels. The ROS assay measures the accumulation of intracellular ROS levels. The non-fluorescent dye DFDA passively diffuses into cells, where the acetates are cleaved by intracellular esterases. […] Thus, values of the fluorescence in the cell cultures are constantly rising in this assay. Cells (1.5×10^4 cells/well) were incubated with Hallam's physiological saline (HPS) containing DFDA (10 μM) in a 96-well microplate for 30 minutes at 37° C. After the incubation, cells were washed three times with HPS and then incubated with HPS containing EGCG (15-200 μM) or diamide (5 mM) for the indicated time periods. The intracellular ROS levels were measured by using a fluorescence plate reader (BIO-TEK FL600, Bio-Tek Instruments, Inc., Winooski, Vt.), at an excitation wavelength of 485 nm and an emission wavelength of 530 nm.
as §2, with “assay (DFDA assay)” for “assay”, “dye dichlorofluorescein diacetate (DFDA)” for “dye DFDA”, “this assay due to the accumulation of ROS.” for “this assay.”, “EGCG (50-200” for “EGCG (15-200”, “indicated times.” for “indicated time periods.”

OSC-4 cells = test: MTT assay (SDH activity), OSC-4 cells; assay type: cell-based, human
Protocol: MTT [3-(4,5-dimethylthiazol-2-yl)-2,5-diphenyl tetrazolium bromide] assay. This method directly detects the activity of mitochondrial succinate dehydrogenase (SDH). Changes in SDH activity is a measurement of cell viability when stress is introduced in cell culture through chemical or physical means. Cells (1.5×10^4 cells/well) were seeded in a 96-well microplate and treated with the indicated doses of EGCG for 24 hours. After the treatment, the cells in each well were washed with 200 μl of phosphate-buffered saline (PBS), incubated with 100 μl of 2% MTT in a solution of 0.05 M Tris, 0.5 mM MgCl2, 2.5 mM CoCl2, and 0.25 M disodiumn succinate as substrate (Sigma) at 37° C. for 30 minutes. Cells were fixed in situ by the addition of 100 μl of 4% formalin in 0.2 M Tris (pH 7.7), and after a 5 minute incubation at room temperature liquid was removed and the wells were allowed to dry. Each well was rinsed with 200 μl water and cells were solubilized by the addition of 100 μl of 6.35% 0.1 N NaOH in DMSO. The colored formazan product was measured by a Thermo MAX micro plate reader (Molecular Devices Corp., Sunnyvale, Calif.) at a wavelength of 562 nm. Experiments were repeated three times with triplicate samples for each experiment.

NHEK [5] = test: Intracellular ROS levels (DFDA assay), NHEK; assay type: cell-based, human; settings: 5 mM diamide, 1-minute incubation
Protocol: Measurement of intracellular ROS levels. The ROS assay measures the accumulation of intracellular ROS levels. The non-fluorescent dye DFDA passively diffuses into cells, where the acetates are cleaved by intracellular esterases. […] Thus, values of the fluorescence in the cell cultures are constantly rising in this assay. […] The intracellular ROS levels were measured by using a fluorescence plate reader (BIO-TEK FL600, Bio-Tek Instruments, Inc., Winooski, Vt.), at an excitation wavelength of 485 nm and an emission wavelength of 530 nm.

p57 (KIP2) = assay type: cell-based, human; settings: for p57 expression, carcinogen alone: 0.12 μM BaP or 10 μM NNK alone
Protocol: Cell treatments. For 24 hours treatments, exponentially growing cells with 40% confluency (to minimize differentiation and spontaneous apoptosis) were either maintained in 50 μM EGCG (2.29 mg/100 ml) or 0.2 mg/ml of GTPPs in tissue culture flasks (25 cm^2). Control flasks contained cells without any treatment. To test whether BaP or NNK interfere with the induction of p57, the human keratinocytes were treated with 0.12 μM BaP, or 10 μM NNK, either alone or in combination with 50 μM EGCG. To examine the time course of p57 induction, cells were treated with 50 μM EGCG and harvested for Western analysis at 30 minutes, 2 hours, 6 hours, and 24 hours. The human keratinocytes were treated when the cell density reached 85-90% confluency (to mimic the epithelium).
In a parallel series of experiments, treatment with EGCG was performed with 30 micrograms per milliliter (μg/ml) cycloheximide added to the keratinocyte media 30 minutes prior to the addition of EGCG. The dose-response experiments were performed using EGCG concentrations at 30, 50 100, and 200 μM in the culture media for 24 hours.
Western blot analysis. Cells from different treatment groups were lysed in RIPA buffer (1% NP-40, 1% sodium deoxycholate, 0.1% SDS, 0.15 M NaCl, 0.01 M sodium phosphate, pH 7.2, and 1% Trasylol) containing proteinase inhibitors (1 mM PMSF, 1 μg/ml each of aprotinin, leupeptin, and pepstatin). The concentration of protein in each sample was determined using the BioRad DC Protein Assay and spectrophotometry. Fifty micrograms (μg) of protein from each sample and a BioRad molecular weight standard marker were run on a 10% SDS-PAGE, followed by transfer to nitrocellulose membranes. Nonspecific binding to membranes was blocked with 10% nonfat milk. Specific primary polyclonal (rabbit) antibody against p57 and a horse radish peroxidase-conjugated goat anti-rabbit secondary antibody were used in conjunction with the ECL Chemiluminescence Kit and membranes were exposed to radiographic films for detection.

caspase-3 = test: Caspase-3 activity, OSC-2 and OSC-4 cells pretreated with catalase; assay type: cell-based, human; settings: 200 U/ml catalase, 24 hour
Protocol: Caspase-3 activity assay. The caspase-3 apoptosis detection kit (Santa Cruz Biotechnology, Inc., Santa Cruz, Calif.) was used to measure caspase-3 activity. Cells (10^5 cells/well) were plated in triplicate in a 24-well tissue culture plate. […] To each well, 100 μl of 2×reaction buffer was added with 10 mM dithiothreitol. Finally, 5 μl of DEVD-AFC substrate was added to each well containing cell lysates. The reaction mixtures were incubated for 1 hour at 37° C., and caspase-3 activity in each well was measured using a fluorescence microplate reader ([…]luor Plus, Tecan US, Research Triangle Park, N.C.) at a wavelength of 405 nm for excitation and 505 nm for emission.

OSC-2 and OSC-4 cells [6] = test: BrdU incorporation, OSC-2 and OSC-4 cells with exogenous catalase; assay type: cell-based, human; settings: 200 U/ml catalase, 200 μM EGCG, 24 h
Protocol: DNA synthesis assay. DNA synthesis was analyzed by a BrdU cell proliferation assay kit (Oncogene Research Products, Boston, Mass.). […] After the treatment, cells were labeled with BrdU for 2 hours at 37° C. and reacted with anti-BrdU antibody. Unbound antibody in each well was removed by rinsing, and horseradish peroxidase-conjugated goat anti-mouse IgG antibody was added to each well. The color reaction to visualize the secondary antibody was carried out according to the protocol provided by the manufacturer.

For `Nc1nc[nH]n1` [3-AT, 3-amino-1,2,4-triazole], the “susceptibility of NHEK to EGCG cytotoxicity after 3-AT” value (NHEK [1]; pretreatment with 3-AT) was “did not become susceptible to EGCG cytotoxicity” and the “effect of 3-AT on EGCG-induced decline of SDH activity” value (OSC-2 and OSC-4 cells [2]; 30 μM 3-AT 2 hours, 200 μM EGCG) was “had no significant effect on the decline of mitochondrial SDH activity”.

In the case of `OO` [H2O2, hydrogen peroxide], the SDH activity (OSC-2 cells [3]; 50 μM H2O2, 24 hour) is reported as “had no effect on the SDH activity”, the “H2O2 concentration needed to cause […]% reduction of SDH activity” value (OSC-2 cells [3]; 24 hours) is reported as 250 µM and the SDH activity remained (NHEK [1]; 1 mM H2O2, 24 hours) is reported as 75%. For the same compound, the “reduction of SDH activity” value (NHEK [1]; 1 mM H2O2, 24 hours) was 25%, the “ROS accumulated in OSC-2 cells relative to OSC-4 cells” value (OSC-2 cells [4]) was “approximately two” and the SDH activity (OSC-4 cells; 100 μM H2O2) was “had no significant effect on SDH activity”. The “H2O2 concentration needed to cause […]% reduction of SDH activity” value (OSC-4 cells; 24 hours) was 250 µM.

With `CN(C)C(=O)/N=N/C(=O)N(C)C` [diamide, reference compound] the “intracellular ROS levels vs endogenous” value (NHEK [5]) was “induced ROS” and the “ROS accumulated in OSC-2 cells relative to OSC-4 cells” value (OSC-2 cells [4]) was “doubled that in OSC-4 cells; also recorded: approximately two”.

In the case of `C[C@@H]1C[C@@H]([C@H](O)CC2CC(=O)NC(=O)C2)C(=O)[C@@H](C)C1` [cycloheximide, reference compound], the “p57 protein levels with cycloheximide” value (p57 (KIP2); 30 μg/ml cycloheximide plus 50 μM EGCG) is reported as “gradual decline in p57 protein levels”.

For `CC(=O)N[C@@H](CS)C(=O)O` [NAC, N-acetyl-L-cysteine], the “effect of NAC on EGCG-induced cytotoxicity” value (OSC-2 and OSC-4 cells [2]; 10 mM NAC 2 hour pretreatment) was “failed to rescue both cell lines from EGCG-induced cytotoxicity” and the “effect of NAC on H2O2 cytotoxicity” value (OSC-2 and OSC-4 cells [2]; 10 mM NAC 2 hour pretreatment, H2O2 250 and 500 μM) was “significantly inhibited the cytotoxic effect of H2O2”.

For catalase, the “effect of exogenous catalase on EGCG-induced caspase 3 activation” value (caspase-3) was “partially inhibited EGCG-induced caspase 3 activation”, the “effect of exogenous catalase on BrdU incorporation with EGCG” value (OSC-2 and OSC-4 cells [6]) was “had no effect on the rates of BrdU incorporation” and the “effect of exogenous catalase on EGCG-induced SDH reduction in OSC-4 cells” value (OSC-2 and OSC-4 cells [2]; 200 U/ml catalase, 200 μM EGCG) was “partially reversed the effects of 200 μM EGCG”. For the same compound, the “effect of exogenous catalase on EGCG-induced SDH reduction” value (OSC-2 and OSC-4 cells [2]; 200 U/ml catalase, 200 μM EGCG, 24 h) was “had no effect on this reduction”.

In the case of `CN(CCCC(=O)c1cccnc1)N=O` [NNK, reference compound], the “p57 expression, carcinogen alone” value (p57 (KIP2)) is reported as “did not alter p57 expression”.

With `c1ccc2c(c1)cc1ccc3cccc4ccc2c1c34` [BaP, reference compound] the “p57 expression, carcinogen alone” value (p57 (KIP2)) was “did not alter p57 expression”.
